Laboratory results published in US11357766B2, “Compositions and methods for treating cancer” (Texas Tech University System, priority 2017, dated 2022).

Experiments:
AsPC1 cells = test: AnnexinV/FITC apoptosis assay; assay type: cell-based, human; details: 7.5 μM, 48 hours
Experimental: (§1) Briefly, the following cells were treated at 0.2×10^6, in FIG. 2A AsPC1 cells, FIG. 2B BxPC3 cells, and in FIG. 2C PANC1 cells, which were plated and treated with 5, 7.5 and 10 μM pimavanserin tartrate for 48 hours. Percent apoptotic cells was evaluated by AnnexinV/FITC apoptosis assay using Accuri C6 flow cytometer. Studies were repeated independently 3 times.
(§2) AnnexinV/FITC apoptosis assay. The effects of pimavanserin in inducing apoptosis were assessed by AnnexinV/FITC apoptosis assay. The assay was performed by FITC AnnexinV apoptosis detection kit (BD biosciences, San Jose, Calif., USA). Briefly, 0.2×10^6 pancreatic cancer cells were plated in each well of 6-well plate and incubate overnight for the cells to attach. The cells were then treated with varying concentrations of pimavanserin tartrate. After 48 hours, cells were trypsinized and suspended in PBS. Cells were washed and re-suspended in 150 μl of annexin binding buffer. The cells were then stained with 4 μl AnnexinV FITC and 4 μl propidium iodide for 20 minutes in dark. Post incubation, the volume was adjusted to 350 μl by adding annexin binding buffer. Samples were then analyzed by flow cytometer (Accuri C6, AnnArbor, Mich., USA) as previously described by the present inventors (7).
(§3) Pimavanserin induces apoptosis in pancreatic cancer cells. In order to determine the mechanism of anti-proliferative effects of pimavanserin tartrate, apoptosis induction by pimavanserin tartrate treatment was determined in AsPC1, BxPC3 and PANC1 pancreatic cancer cells by AnnexinV/FITC assay using flow cytometer. […] Treatment of AsPC1 and BxPC3 cells with 7.5 μM pimavanserin caused 2-fold increase in apoptotic cells (FIG. 2A, 2B), whereas in PANC1 cells, a 4-fold increase in apoptotic cells was observed (FIG. 2C). […] Induction of apoptosis by pimavanserin treatment in AsPC1, BxPC3 and PANC1 cells was confirmed by cleavage of caspase 3 (FIGS. 3A-3C).

BxPC3 cells = test: AnnexinV/FITC apoptosis assay; assay type: cell-based, human; details: 48 hours
Experimental: as §1, §2, §3

PANC1 cells = test: AnnexinV/FITC apoptosis assay; assay type: cell-based, human; details: 48 hours
Experimental: as §1, §2, §3

[1] = system: subcutaneously implanted BxPC3 tumors; test: Pancreatic tumor xenograft model; assay type: in vivo; details: 10 mg/kg oral gavage everyday
Experimental: Briefly, In FIG. 4A 1×10^6 BxPC3 cells in 1:1 mixture of PBS and matrigel were subcutaneously implanted in the right flank of 4-6 week old female athymic nude mice (n=5). […] The treatment was given till day 40. Values are plotted as mean±SEM. FIG. 4B orthotopic tumors were aseptically removed and the tumor size was compared between control and pimavanserin treated group. In FIG. 4C mice weight was recorded once in 10 days. The average weight of the mice is plotted against days. Values are plotted as mean±SEM.
Pancreatic tumor xenograft model. Female athymic nude mice (4-6 week old) were purchased from Harlan Laboratory (Livermore, Calif.). All the experiments were performed under the strict compliance and regulations approved from Institutional Animal Care and Use Committee (IACUC), Texas Tech University Health Sciences Center, Amarillo, Tex. 1×10^6 BxPC3 cells were implanted in right flank of the mice. […] Group I was assigned as control group, which received the vehicle only (PBS). Group II mice received 10 mg/kg Pimavanserin tartrate by oral gavage everyday. Treatment with Pimavanserin was started at day 13. Tumor growth was monitored by measuring the tumor volume twice a week until day 40 using a Vernier caliper as described by the present inventors (11). The study was terminated at day 40 due to tumor burden. The mice were euthanized and the tumors were aseptically removed. A part of tumor was snap frozen for western blotting and the other part was fixed in formalin for immunohistochemistry and TUNEL analysis. Mice weight was monitored once in ten days.
Pimavanserin suppresses the growth of subcutaneously implanted pancreatic tumors. To examine the in-vivo efficacy of pimavanserin and to establish the mechanism of tumor growth inhibition in pancreatic cancer, BxPC3 cells were implanted subcutaneously in female athymic nude mice. Once the tumor volume reached 70 mm^3 in size, experimental group of mice were treated with 10 mg/kg pimavanserin by oral gavage everyday. […]

pancreatic cancer cells = test: Glycolysis, mitochondrial respiration and marker expression in pancreatic cancer cells; assay type: cell-based

SMILES: CC(C)COc1ccc(CNC(=O)N(Cc2ccc(F)cc2)C2CCN(C)CC2)cc1 [pimavanserin, N-(4-fluorophenylmethyl)-N-(1-methylpiperidin-4-yl)-N′-(4-(2-methylpropyloxy)phenylmethyl)carbamide]
- increase in apoptotic cells (AsPC1 cells): 2 fold
- increase in apoptotic cells (BxPC3 cells; 7.5 μM): 2 fold
- increase in apoptotic cells (BxPC3 cells; 10 μM): 5 fold
- increase in apoptotic cells (PANC1 cells; 7.5 μM): 4 fold
- increase in apoptotic cells (PANC1 cells; 10 μM): 5 fold
- average tumor volume at the day of sacrifice ([1]; day 40, control group 873.395 mm3): 429.01 mm3
- overall weight of mice vs control (general signs of toxicity) ([1]; throughout the study): similar
- suppression of growth of BxPC3 tumors ([1]; vs control): 50%
- cleavage of caspase3 and PARP (pancreatic cancer cells; Western blot): increasing
- expression of main metabolic markers Hexokinase-1, LDH-A and FOXM1 (pancreatic cancer cells; Western blot): inhibits
- glycolysis and mitochondrial respiration (pancreatic cancer cells; pancreatic cancer cells): inhibits
- key oncogenic markers pAkt(S473), pSTAT3 (Y705 & S727), β-catenin, Cyclin D1, Mc1-1, HER2, EGFR, VEGFR2, c-Myc, CD44, Oct-4 (pancreatic cancer cells; pancreatic cancer cells): inhibiting
